The results in this text go back to patent US20250186960A1, “BIODEGRADABLE MICROCAPSULES AND A METHOD FOR THEIR PREPARATION” (priority 2022, published 2025).

The nature of this data set: Microcapsule fragrance loading quantification via GC. It is filed as physicochemical. Conditions: for Composition 2 (encapsulate wt %): level of the fragrance material in microcapsules of Example 21B; for Composition 2 (oil wt %) / Composition 1 (oil wt %): share of the fragrance material in the encapsulated oil; for Composition 2 (oil wt %): Example 21B; for Composition 1 (encapsulate wt %): level of the fragrance material in microcapsules of Example 21A; for Composition 1 (oil wt %): Example 21A.

Excerpt: Fragrance levels in the microcapsule can be determined by extraction of the fragrance and injection into a GC column. An Agilent 8890 gas chromatograph is used, equipped with a HP-5MS column, and using hydrogen as carrier gas. Quantification is achieved by use of a calibration curve for the given fragrance material diluted in ethanol.
To measure the total level of fragrance in an encapsulate sample, the capsules must first be broken by sonication, for example 1.0 g of encapsulate in 2.0 g of DI water with a Bandelin Sonopuls HD4200 ultrasonicator, equipped with probe TS104 for 1 minute at 30% amplitude (around 1.5 KJ in total). A few drops of aqueous potassium hydroxide solution (10% wt) are added before sonication to raise the pH of the solution above 11. While sonicating, ice is used to keep the temperature below room temperature (20° C.) to avoid any loss of fragrance through evaporation. A microscope is used to check visually if the capsules are fully broken. If not, sonication is repeated. Ethanol is added to the mixture, which is then mixed and centrifuged. The supernatant is collected and retained as the first extraction. The residue is mixed with ethanol again and centrifuged. The supernatant is collected and added to the first extraction. This is then diluted as appropriate and injected into the GC for analysis.
To measure the level of free fragrance in the sample (i.e. the level of un-encapsulated fragrance), the encapsulate slurry is well mixed in DI water and filtered using a sterile cell strainer (40 μm Nylon mesh). The filtrate is diluted with ethanol and injected into the GC for analysis.
The encapsulated fragrance level is the difference between the total fragrance and the free fragrance levels.

As for `O=C(OCc1ccccc1)c1ccccc1O` [Benzyl salicylate], the “Composition 2 (encapsulate wt %)” value was determined as 0.66 wt % and the “Composition 2 (oil wt %)” value stood at 22.5 wt %.
In the case of `OC/C=C/c1ccccc1` [Cinnamic alcohol], the “Composition 1 (encapsulate wt %)” value is given as 0.01 wt % and the “Composition 1 (oil wt %)” value is reported as 0.5 wt %.
Consider `C/C=C/C(=O)C1C(C)C=CCC1(C)C` (centres unmarked) [Delta damascone], for which the “Composition 1 (encapsulate wt %)” value is 0.54 wt %, the “Composition 2 (encapsulate wt %)” value turned out to be 0.53 wt %, the “Composition 1 (oil wt %)” value stood at 29.5 wt % and the “Composition 2 (oil wt %)” value is 18.1 wt %.
Turning to `C=C(C)[C@H]1CC=C(C)CC1` [Dipentene], the “Composition 2 (encapsulate wt %)” value is 0.63 wt % and the “Composition 2 (oil wt %)” value is 21.5 wt %.
Regarding `c1ccc(Oc2ccccc2)cc1` [Diphenyl oxide], the “Composition 2 (encapsulate wt %)” value worked out at 0.59 wt % and the “Composition 2 (oil wt %)” value is listed as 20.1 wt %.
Take `CC(C)=CCC/C(C)=C/CO` [Geraniol]: the “Composition 1 (encapsulate wt %)” value stood at 0.11 wt % and the “Composition 1 (oil wt %)” value turned out to be 6.0 wt %.
As for `CCC=C(C)C(O)CCCCC` (centres unmarked) [Undecavertol], the “Composition 1 (encapsulate wt %)” value worked out at 0.39 wt % and the “Composition 1 (oil wt %)” value is reported as 21.3 wt %.
For `CCCCCCCCCCCC#N` [dodecane nitrile], the “Composition 1 (encapsulate wt %)” value was 0.79 wt % and the “Composition 1 (oil wt %)” value was found to be 43.2 wt %.
With “Ortho tertiary butyl cyclo hexyl acetate”, the “Composition 2 (encapsulate wt %)” value is listed as 0.52 wt % and the “Composition 2 (oil wt %)” value is given as 17.7 wt %.
